According to patent US20030017497A1, “Peptide mimotopes of carbohydrate antigens” (priority 1998, published 2003):
“Also recorded” adds a separate entry of the source. Where no end group is shown, it is not given here.

Tests used:
[1] = tested on: anti-LeY monoclonal antibody 15.6 (BR15.6, 15.6A); assay: ELISA reaction of MAb 15.6 (BR15-6A) with peptides; assay type: binding
Method: (§1) FIGS. 2A and 2B depict the reactivity of putative motifs by ELISA. […] Constant amounts of BR55-2 were incubates with increasing amounts of MAP peptides, and then reaction of free mAb with LeY was measured by ELISA. Data points reflect 50% inhibition at 2 μg/ml of peptide inhibitor as measured by reduction of O.D. values in ELISA.
(§2) For example, polyclonal antibodies raised against the motif YYRYD might cross-react with MCP and with LeY. […] To further determine the extent of cross-reactivity for these motifs, peptides were synthesized repeating the respective putative centralized motifs shown in Table 2. It is theorized that the repeating tract should adopt a helix configuration which emulates many extended carbohydrate structures. To evaluate the antigenic mimicry of motif forms, we synthesized respective multiple antigen peptides (MAP) forms for detection of a reactivity pattern with the anti-LeY monoclonal antibodies BR55-2, and 15.6 (also referred to as BR15.6) and the anti-ganglioside antibody ME361 (FIG. 2a). Significant reactive sequences in FIG. 2a correspond to 3 peptides,
(§3) BR55-2 and 15.6A show distinct binding properties for LeY expressing tumor cells. […] The general mimicry of the K1106, K1105 and K1107 peptides for Le antigens is further assessed by ELISA reactivity with the anti-SA-LeX monoclonal antibody FH-6 (FIG. 3). These peptides are also reactive with this antibody. […]

[2] = tested on: anti-LeY monoclonal antibody BR55-2; assay: ELISA reaction of MAb BR55-2 with peptides (MAP forms); assay type: binding; details: for binding of peptide to BR55-2 in ELISA: monovalent peptide; for ELISA reactivity of BR55-2 with MAP peptide: MAP peptide forms
Method: as §1, §2
(§4) BR55-2 and 15.6A show distinct binding properties for LeY expressing tumor cells. […] The general mimicry of the K1106, K1105 and K1107 peptides for Le antigens is further assessed by ELISA reactivity with the anti-SA-LeX monoclonal antibody FH-6 (FIG. 3). These peptides are also reactive with this antibody. The significance of this reactivity is that previous reports indicate that peptides might only be reactive with antibodies that isolate them and in fact it is expected that peptide mimotopes might be not true mimics of carbohydrates.

[3] = tested on: anti-ganglioside antibody ME361; assay: ELISA reaction of MAb ME361 with MAP peptides; assay type: binding; details: MAP peptide forms
Method: as §1, §2, §3

[4] = tested on: anti-SA-LeX monoclonal antibody FH-6; assay: ELISA reactivity of peptides with antibody FH-6; assay type: binding
From the text: FIG. 3 depicts the reactivity of the anti-sLex antibody FH-6 with MAP peptides.
as §4

[5] = ELISA with various synthetic carbohydrate subunit probes; assay type: binding; details: antisera to MAP, 1:50 dilution
Method: To further evaluate the specificity of the anti-carbohydrate IgG fraction derived from proteosome-conjugate immunized mice, ELISA assays were performed with plates coated with various synthetic carbohydrate subunit probes (FIG. 5a). […] It was observed that the anti-peptide sera (1:100 titer) was reactive with respective carbohydrate probes above background binding. Preferences for antisera against the YPY motif include Fucα1-3GlcNAc representative of LeY, and Lex, the H type 1 structure Fucα1-2Galβ1-3GlcNAc representative of Leb, and the disaccharide Galb1-4Glc which is a major constituent bacterial LOS. […] The antisera reacted with both H type 1 and H type 2 (Fucα1-2Galβ1-4GlcNAc) structures, with the type 1 structure displaying slightly more activity. This may reflect interaction with the common Fucα1-2Gal structure found on type 1 and type 2 structures or functional groups that are shared within the common topography of these two chains.
In contrast to the proteosome-peptide conjugates, increased specificity for LeY is observed for the MAP forms (FIG. 5b). At 1:50 dilution, the LeY reactivity of the antisera is approximately 3 fold more reactive with LeY than with Leb, Lex-pentasaccharide, SLea, SLex. […] Considering the diminished reactivity against LeX which shares the Galβ1→4(Fucα1→3)GlcNAcβ1 component it would appear that a fraction of antibodies react with a conformational component of LeY, providing for its increased reactivity, or alternatively, the affinity for LeY is increased.
To further evaluate the specificity of the 1104 peptide we synthesized 1104 as a MAP form and immunized Balb/c mice, with QS-21 as adjuvant and examined its reactivity pattern with various Le synthetic probes by ELISA (FIG. 9). The utility of MAP peptides is in their apparent advantage as immunogens. […] However, the MAPS described above contain T cell epitopes within the peptide sequence. […] We have observed this trend with MAP peptides.
At 1:50 serum dilution (FIG. 9), we observed about the same level of reduced reactivity for Leb hexasaccharide, LeX-pentasaccharide, sLeX, Lea, and sLea, while higher levels of reactivity are observed for LeY and LeY constituents. […] This selective interaction sets apart reactivities between Leb and LeY, since reactivity is observed for the H type 1 constituent of Leb.

[6] = tested on: BR55-2 binding to LeY-PAA; assay: Inhibition of mAb BR55-2 binding to solid-phase LeY-PAA by soluble MAP peptides (ELISA); details: 20 times molar excess of MAP peptide
Method: as §1, §4

[7] = tested on: SKBR3; assay: Complement dependent cytotoxicity (CDC); assay type: cell-based, human
From the text: (§5) Anti-carbohydrate antibodies may mediate complement dependent cytotoxicity (CDC) better than cytotoxicity associated with various effector cells. Subsequently, we have initially examined CDC mediation of various sera raised either to peptides or against the multivalent LeY-PAA form. […] We examined the ability of the sera to mediate complement dependent cytotoxicity (CDC) of the SKBR3 and MCF7 human breast adenocarcinoma cell lines, the ovarian tumor cell line OVAR-3 and the human melanoma lines WM793 and SKMEL-28 compared to that of the LeY-PAA generated sera. Positive control antibodies were BR55-2 which mediates CDC of the adenocarcinoma lines, and ME361 which mediates killing of WM793. Negative controls were pre-immune sera, an irrelevant peptide immunogen (C1) and two peptides (G1 and G2) isolated from phage display that are reactive with ME361.

[8] = tested on: OVAR-3; assay: Complement dependent cytotoxicity (CDC); assay type: cell-based, human
From the text: as §5

[9] = tested on: WM793; assay: Complement dependent cytotoxicity (CDC); assay type: cell-based, human
From the text: as §5

[10] = tested on: SKME1-28; assay: Complement dependent cytotoxicity (CDC); assay type: cell-based, human
From the text: as §5

[11] = tested on: MCF-7; assay: Complement dependent cytotoxicity (CDC); assay type: cell-based, human
From the text: as §5

[12] = target: anti-LeY monoclonal antibody BR55-2; assay: competition ELISA: soluble MAP peptide against solid-phase LeY-PAA for BR55-2 (FIG. 2b)

Which “ELISA reactivity of 15.6 / BR15-6A with peptide” value [1] does the source give for “APWLYAP (Novel Sequence) [reference compound]” here?
The value was “negative”.

What about the “binding of peptide to BR55-2 in ELISA” value [2] of the same molecule?
Its value is “negative”.

What does the source list for “GGGAPWLYGAPWLYGAPWLY [Peptide K61223, triple repeat of the APWLY motif]”?
ELISA reactivity (O.D.) of ME361 with MAP peptide [3]: not reactive; ELISA reactivity of 15.6 / BR15-6A with peptide [1]: not reactive; ELISA reactivity of BR55-2 with MAP peptide [2]: not reactive; also recorded: little reactivity

Which “binding of peptide to BR55-2 in ELISA” value [2] does the source give for “APWLYGPA (Novel Sequence) [reference compound]” here?
The value was “does not bind”.

Which “ELISA reactivity with FH-6” value [4] does the source give for “GGYYRYDIYYRYDIYYRYD (Novel Sequence) [Peptide K61107]” here?
The value was “also reactive”.

And the “less reactivity with Lea and Sialyl-Lex” value [5]?
The value was “about 1 fold”.

And the “ELISA reactivity of BR55-2 with MAP peptide” value [2]?
Its value is “bound very well”.

And the “inhibition of BR55-2 binding to LeY” value [6]?
Its value is 50%.

Which averaged percent cytotoxicity [7] does the source give for “LDVVLAWRDGLSGAS [Peptide G2, LDVVLAWRDGLSGAS]” here?
Its averaged percent cytotoxicity is 13%.

And the averaged percent cytotoxicity [8]?
The averaged percent cytotoxicity was 11%.

What about the averaged percent cytotoxicity [9] of the same molecule?
Its averaged percent cytotoxicity is 90%.

And the averaged percent cytotoxicity [10]?
Its averaged percent cytotoxicity is 87%.

What about the averaged percent cytotoxicity [11] of the same molecule?
The averaged percent cytotoxicity was 15%.

For GGYYRYDIYYRYDIYYRYD (also: multiple antigen peptide (MAP) form, branches and core not given here) [K61107 MAP peptide …], which molar excess giving 50% inhibition (times molar excess) [12] is on record?
The molar excess giving 50% inhibition (times molar excess) was 20.

For GGIYWRYDIYWRYDIYWRYD (also: multiple antigen peptide (MAP) form, branches and core not given here) [K61106 MAP peptide …], which molar excess giving 50% inhibition (times molar excess) [12] is on record?
The molar excess giving 50% inhibition (times molar excess) was 20.
